Columns and labels:
Assay type in all cases: cell-based, human
U87MG = assay: Cell adhesion assay on matrigel coated wells; settings: Conc. 10 µM, percent of adhesion with respect to the control (100%)
U2OS = assay: Matrigel cell invasion assay; design: key to Invasion Assay Inhibition (%) U2OS: +++: > 90%; ++: 50-90 %; +: < 50%; -: Not active; settings: Conc. 10 µM
VEGF = assay: Real-Time Quantitative PCR of pro-angiogenic genes in HT1080 cells; settings: 24 h, Conc 10.0 uM
Procedure: (§1) To evaluate the effect of heparanase inhibitors on the tumor transcription of genes encoding for proangiogenic factors, such as FGF1/2, VEGF, MMP-9, HSPE-1, the relative mRNA levels were analyzed by quantitative Real-Time Quantitative PCR. To perform the assay, HT1080 (human fibrosarcoma) cells were cultured in complete medium containing 10%FCS (fetal calf serum). Cells were plated in 24-well plates and treated at fixed concentration (i.e., highest non-toxic concentration) of test compounds. After 24 h, cells were detached, collected and total RNA extracted by RNeasy Mini Kit (QIAGEN). Following reverse transcription step, FGF1/2, VEGF, MMP-9, HSPE-1 mRNA levels, were quantified by qPCR using the advanced Universal SYBR Green Supermix (Bio Rad) and ABI PRISM 7900HT Thermal Cycler System (Perkin Elmer), according to the manufacturer's instructions. Appropriate no-RT and non-template controls were included in each 96-well PCR reaction, and dissociation analysis was performed at the end of each run to confirm the specificity of the reaction. Relative levels of RNA were calculated using the ddCt method. Standard curve and sample data were run in duplicate. In the Table a mean value is reported.

FGF-2 = assay: as above; settings: 24 h, Conc 10.0 uM
Procedure: as §1

FGF-1 = assay: as above; settings: 24 h, Conc 10.0 uM
Procedure: as §1

MMP-9 = assay: as above; settings: 24 h, Conc 10.0 uM
Procedure: as §1

HPSE-1 = assay: as above; settings: 24 h, Conc 10.0 uM
Procedure: To evaluate the effect of heparanase inhibitors on the tumor transcription of genes encoding for proangiogenic factors, such as FGF1/2, VEGF, MMP-9, HSPE-1, the relative mRNA levels were analyzed by quantitative Real-Time Quantitative PCR. To perform the assay, HT1080 (human fibrosarcoma) cells were cultured in complete medium containing 10%FCS (fetal calf serum). Cells were plated in 24-well plates and treated at fixed concentration (i.e., highest non-toxic concentration) of test compounds. After 24 h, cells were detached, collected and total RNA extracted by RNeasy Mini Kit (QIAGEN). Following reverse transcription step, FGF1/2, VEGF, MMP-9, HSPE-1 mRNA levels, were quantified by qPCR using the advanced Universal SYBR Green Supermix (Bio Rad) and ABI PRISM 7900HT Thermal Cycler System (Perkin Elmer), according to the manufacturer's instructions. […] Relative levels of RNA were calculated using the ddCt method. Standard curve and sample data were run in duplicate.

COc1cc(N=Nc2cc(S(=O)(=O)O)cc3cc(S(=O)(=O)O)cc(O)c23)c(C)cc1NC(=O)Nc1cc(C)c(N=Nc2cc(S(=O)(=O)O)cc3cc(S(=O)(=O)O)cc(O)c23)cc1OC [SST0597]
Adhesion Assay (%) U87MG (U87MG): ∼ 23% | Invasion Assay Inhibition (%) U2OS (U2OS): - | Gene Expression (% mRNA vs. control) VEGF (VEGF): ∼ 100% | Gene Expression (% mRNA vs. control) FGF-2 (FGF-2): ∼ 82% | Gene Expression (% mRNA vs. control) FGF-1 (FGF-1): ∼ 100% | Gene Expression (% mRNA vs. control) MMP-9 (MMP-9): ∼ 69% | Gene Expression (% mRNA vs. control) HPSE-1 (HPSE-1): ∼ 100%

From patent EP3381906A1, “COMPOUNDS FOR USE AS HEPARANASE INHIBITORS” (Leadiant Biosciences SA, priority 2017, dated 2018)
